Assay results: article PMC12525849, “In Silico and RP HPLC Studies of Biologically Active 1,3,4-Thiadiazol-2-yl)-benzene-1,3-diols” (Molecules, 2025)
Read-outs that look alike come from different tables or passages of the source.

Experiments:
[1] = Log D(7.4) determination from RP-18 measurements using a standard curve; assay type: physicochemical; details: C18 (RP-18) HPLC column with MeOH-water mobile phase; calculated from standard curve (Equation 3) and log kw C18, pH 7.4
Description: C-18 chromatography was used to determine the distribution coefficient log D(7.4) of the tested compounds using a standard curve. It was constructed for the reference compounds with known experimental log D(7.4) values and studied chromatographically under the same conditions as the analyzed compounds [44] (Table 4). The obtained log kw values were plotted against the log D(7.4) based on BioLoom Database values taken from Andres et al. (Table S6 in the Supplementary Materials). […] In the case of analogues 7 and 14, these differences are the largest and they constitute about 17% and 13%, respectively (Table 4). This means that the obtained log kw values from the C18/MeOH-water (pH = 7.4) chromatographic system reflect the extraction values of log D(7.4) quite well. […] The analytical standards were purchased from Sigma Aldrich […], Darmstadt, Germany). The obtained log kw values from HPLC C-18 were plotted against the log D(7.4) based on BioLoom Database values taken from Andres et al. (Table S6 in the Supplementary Materials).

[2] = RP HPLC on octadecyl (C-18/RP-18) column, buffer-MeOH pH 7.4, log kw by extrapolation; assay type: physicochemical; details: C18 stationary phase; for log kw C-18: MeOH-buffer pH 7.4, extrapolated intercept; for S: slope of log k vs MeOH content, pH 7.4
Description: (§1) The retention factors of considered compounds were investigated using five different bonded stationary phases: octadecyl (RP-18), octyl (RP-8), cholesterol (Chol), phosphatidylcholine (IAM), and biphenyl (BPh). Water buffer–methanol mobile phases with pH 7.4 were used. The content of MeOH was varying and it depended on the type of compound and the stationary phase.
For the tested systems, linear relationships were obtained between the retention coefficient log k and the content of MeOH (%) in the mobile phase expressed by the Snyder–Soczewiński equation:log k = log kw + S (% organic modifier)(2) where: log kw—the intercept; S—the slope of regression curve.
Log kw values were estimated by the extrapolation method. Log kw and S parameters are presented in Figure 3, Table 2, and Tables S1–S5 in the Supplementary Materials. These parameters obtained by C-18, C-8, and IAM chromatography are commonly used as lipophilicity descriptors.
(§2) HPLC measurements for C-18, C-8, IAM, Chol, and BPh phases were carried out using a liquid chromatograph Knauer (Knauer, Berlin, Germany) with a single pump working in isocratic mode, a 20 µL simple injection valve, and a UV–visible detector (Knauer, Berlin, Germany) working at 280 nm at room temperature. The retention time of an unretained solute (t0) was determined by the injection of a small amount of citric acid dissolved in water. The mobile phase flow rate was 1 mL/min (0.35 mL/min for Chol). HPLC columns: C18—Eurosil Bioselect 300 × 4 mm, 5 μm; C8—Waters. Symetry 150 × 4.6 mm, 5 μm, 100 Ǻ; IAM—Rexchrom IAM.PC.DD2 100 × 4.6 mm, 12 μm; Chol—Cogent 4 UDC Cholesterol 150 × 2.1 mm, 4 μm; BPh—Kinetex Biphenyl 150 × 4.6 mm, 5 μm were applied.
(§3) Mobile phase for RP-18, RP-8, Chol, and BPh chromatography was composed using 20 mM acetic buffer/MeOH with respective MeOH concentration ranges (volume fractions: C18—from 0.5 to 0.99; C8—from 0.5 to 0.9; IAM—from 0.15 to 0.5; Chol: from 0.45 to 0.9; BPh: from 0.4 to 0.99) to obtain pH = 7.4. In the case of IAM chromatography, phosphate buffer was used. At least five consecutive retention times for five concentrations per every investigated compound for every chromatographic system were measured. Log k parameter was calculated as log k = log (tr−t0/t0), where tr = the retention time of the analyte; t0 = the retention time of an unretained compound.

[3] = Comparison of retention (log kw) on RP-18, RP-8, Chol, IAM and BPh stationary phases; assay type: physicochemical; details: for retention, in words: investigated stationary phases
Description: as §1
The lowest log kw values can be observed for RP-18 and IAM stationary phases. For most compounds, log kw IAM values have similar values or are lower than those obtained for C18 stationary phase. […] On the octadecyl column the main contribution to retention comes from almost entirely hydrophobic interactions, when in the case of IAM phase there are additional mechanisms involved in interactions as ion pairing and hydrogen bonding. They can be either attractive or repulsive in nature. This depends on the structure of compound and pH.
as §2, §3

[4] = cited from earlier work

Row | Compound | chromatographic logD [1] | log kw C-18 [2] | S [2] | retention, in words [3] | retention / determined lipophilicity, in words ([3]; all investigated stationary phases except IAM) | log D(7.4) Bio Loom ([4]; standards used for calibration curve, BioLoom Database values taken from Andres et al. ref 44) | log D(7.4) Bio Loom ([4]; pH 7.4)
1 | Oc1cc(O)c(-c2nnc(-c3ccc(OC(F)(F)F)cc3)s2)cc1Cl [Compound 10] | 4.12 | 3.734 | −4.65 | strongest retained |  |  | 
2 | Oc1cc(O)c(-c2nnc(Nc3ccc(F)cc3)s2)cc1Cl [Compound 13] | 3.14 | 3.005 | −4.173 |  |  |  | 
3 | CCc1cc(-c2nnc(Nc3ccc(Cl)cc3)s2)c(O)cc1O [Compound 14] | 4.88 | 4.296 | −5.335 | strongest retained |  |  | 
4 | CCCCNc1nnc(-c2cc(Cl)c(O)cc2O)s1 [Compound 17] | 2.83 | 2.78 |  |  |  |  | 
5 | Cn1c(=O)c2c(ncn2C)n(C)c1=O [caffeine, reference compound] |  | 0.802 |  |  |  |  | 
6 | O=C(CCCN1CCC(O)(c2ccc(Cl)cc2)CC1)c1ccc(F)cc1 [haloperidol, reference compound] |  | 3.012 |  |  |  | 2.92 | 
7 | C[C@]12CCC(=O)C=C1CC[C@@H]1[C@@H]2[C@@H](O)C[C@@]2(C)[C@H]1CC[C@]2(O)C(=O)CO [hydrocortisone, reference compound] |  | 2.210 |  |  |  |  | 
8 | CC(=O)N1CCN(c2ccc(OCC3COC(Cn4ccnc4)(c4ccc(Cl)cc4Cl)O3)cc2)CC1 (stereo not shown) [ketoconazole, reference compound] |  | 3.370 |  |  |  |  | 
9 | CCN(CC)CC(=O)Nc1c(C)cccc1C [lidocaine, reference compound] |  | 2.079 |  |  |  |  | 
10 | c1ccc2ccccc2c1 [naphthalene, reference compound] |  | 2.615 |  |  |  |  | 3.3
11 | Cn1c(=O)c2[nH]cnc2n(C)c1=O [theophylline, reference compound] |  | 0.380 |  |  |  |  | 

More lines, main results first:

Row | chromatographic logD [1] | log kw C-18 [2] | S [2] | retention, in words [3] | retention / determined lipophilicity, in words ([3]; all investigated stationary phases except IAM) | Compound | log D(7.4) Bio Loom ([4]; standards used for calibration curve, BioLoom Database values taken from Andres et al. ref 44) | log D(7.4) Bio Loom ([4]; pH 7.4)
12 | 2.51 | 2.537 | −3.494 |  |  | Oc1ccc(-c2nnc(-c3ccccc3)s2)c(O)c1 [Compound 1] |  | 
13 | 3.13 | 3 | −3.87 |  |  | Cc1cccc(-c2nnc(-c3ccc(O)cc3O)s2)c1 [Compound 2] |  | 
14 | 3.13 | 3.002 | −3.885 |  |  | Oc1ccc(-c2nnc(-c3ccccc3F)s2)c(O)c1 [Compound 3] |  | 
15 | 2.69 | 2.67 | −3.651 |  |  | Oc1ccc(-c2nnc(-c3ccccc3Cl)s2)c(O)c1 [Compound 4] |  | 
16 | 4.05 | 3.678 | −4.438 |  |  | Oc1ccc(-c2nnc(-c3ccc(Cl)cc3Cl)s2)c(O)c1 [Compound 5] |  | 
17 | 4.06 | 3.69 | −4.696 | strongest retained |  | Oc1ccc(-c2nnc(-c3ccc(C(F)(F)F)cc3)s2)c(O)c1 [Compound 6] |  | 
18 | 1.66 | 1.907 | −3.171 |  | weakest retention | Oc1ccc(-c2nnc(-c3ccc(O)c(O)c3)s2)c(O)c1 [Compound 7] |  | 
19 | 2.52 | 2.545 | −3.785 | relatively low retention factor values |  | COc1cc(-c2nnc(-c3ccc(O)cc3O)s2)ccc1O [Compound 8] |  | 
20 | 2.47 | 2.512 | −3.432 | relatively low retention factor values |  | O=[N+]([O-])c1cccc(-c2nnc(-c3ccc(O)cc3O)s2)c1 [Compound 9] |  | 
21 | 2.42 | 2.477 | −3.66 | relatively low retention factor values |  | Oc1ccc(-c2nnc(Nc3ccccc3)s2)c(O)c1 [Compound 11] |  | 
22 | 3.11 | 2.986 | −4.168 |  |  | Cc1ccc(Nc2nnc(-c3ccc(O)cc3O)s2)cc1 [Compound 12] |  | 
23 | 3.45 | 3.238 | −4.185 |  |  | CCOC(=O)c1ccc(Nc2nnc(-c3ccc(O)cc3O)s2)cc1 [Compound 15] |  | 
24 | 3.21 | 3.059 | −3.931 |  |  | Oc1ccc(-c2nnc(Nc3cccc4ccccc34)s2)c(O)c1 [Compound 16] |  | 
25 | 2.97 | 2.879 | −3.883 | strongest retained |  | Oc1ccc(-c2nnc(COc3ccc(OC(F)(F)F)cc3)s2)c(O)c1 [Compound 18] |  | 
